Measured values as given in US10668049B2, “Methods of treating cognitive decline with transforming growth factor beta inhibitors” (The Regents of the University of California, priority 2008, dated 2020).

Experiments:
[1] = test system: neuronal-enriched culture; experiment: RT-PCR of neuronal-enriched cultures exposed to albumin; type: cell-based, rat; conditions: albumin for 24 h
Method: Primary neuronal cortical cultures were prepared from embryonic day 18 rats as reported previously (Kaufer et al., 2004). Briefly, cells were dissociated with a papain solution for 20 min at 37° C., After the removal of the papain solution, the tissue was resuspended in growth medium [MEM with Earle's salts containing 2.5% B27 supplement, 0.1% mito serum extender, 5% fetal bovine serum (FBS), 20 mM glucose, and 5 mM L-glutamine] and dissociated by mechanical trituration. The cells were plated, and after 4 h in vitro the cell culture medium was replaced with neurobasal medium supplemented with 2% B27 supplement and 0.5 mM GlutaMAX™. The cells were maintained in 5% CO2 at 37° C. After 7 days in vitro, cytosine arabinofuranoside (AraC) (10 μM) was added to the cultures. After 10 days in vitro, the cells were incubated with 0.4 mM albumin for 24 h at 37° C. For astrocytic cultures, astrocytcs were isolated from the cerebral cortices of PO rat pups. Cells were dissociated with papain and mechanical trituration. The cells were cultured in high-glucose Dulbecco's modified eagle medium supplemented with 10% FBS and 1% penicillin/streptomycin at 37° C. and in 5% C02 (medium was replaced every 3-4 days). After 10 days in vitro, the culture medium was replaced with serum-free high-glucose DMEM (containing 1% penicillin/streptomycin) for 18 h. The cells were then incubated in scrum-free medium containing 0.4 mM albumin for 24 h at 37° C. […]
Total RNA was isolated from the somatosensory cortices of animals treated with DOC or albumin (24 h treatment; n=3) or from primary cultures (astrocytic and neuronal, n=3 independent experiments). Expression levels were determined by real-time reverse transcriptase-PCR (RT-PCR) with an iQ5 detection system (Bio-Rad, Hercules, Calif.) using gene-specific primer pairs. RT-PCR data were analyzed using the PCR Miner program (Zhao and Fernald, 2005), and fold changes in gene expression were represented relative to sham-operated controls (in-vivo samples) or serum-deprived controls (in-vitro, samples). […]

[2] = test system: neocortical slices; experiment: Field potential recordings of epileptiform activity in neocortical slices; type: cell-based, rat
Method: Brain slices for the in vitro experiments were prepared by means of standard techniques (Ivens et al., 2007; Pavlovsky et al., 2003; Seiffert et al., 2004). Slices were transferred to a recording chamber where they were incubated in aCSF containing BSA (6.7 mg/ml), TGF-β1 (10 ng/ml) or artificial serum (aSerum, composition based on aCSF with the following changes, composition in mM: 0.8 MgSO4, 1.3 CaCl2, 5.7 KCl, 1 L-glutamine, 0.1 albumin). To block the activity of TGF-β1, slices were incubated in aCSF containing SB431542 (10 μM) before the addition of TGF-β1 (10 ng/ml). To block TGF-βRs, slices were incubated in aCSF containing SB431542 (10 μM) and TGF-βRII antibody (10 μg/ml) for 30 min followed by incubation in BSA in the presence of TGF-βR blockers. For detection of epileptiform activity, field potentials were recorded >4 h following incubation in cortical layer IV using extracellular glass microelectrodes (˜3 MΩ) in response to bipolar stimulation at the border of white and grey matter.
To assess the hypothesis that activation of the TGF-β signaling pathway is the mechanism underlying albumin-induced epileptogenesis, we activated this pathway directly by incubating neocortical slices with TGF-β1 (10 ng/mL) in artificial cerebrospinal fluid (aCSF) and performed electrophysiological recordings. These recordings were compared to those of slices treated with a solution containing serum levels of electrolytes and 0.1 mM albumin (aSERUM, previously shown to induce epileptogenesis; Ivens et al., 2007), albumin in aCSF, or aCSF (control). […] When albumin was added to the control aCSF solution, epileptiform activity was recorded in response to stimulation of the white matter (n=8 out of 12 slices, 6 animals). Importantly. TGF-β1 treatment was sufficient to recapitulate epileptiform activity similar to that seen following treatment with aSERUM and albumin in aCSF (n=5 out of 5 slices, 4 animals; n=7 out of 9 slices, 3 animals; and n=8 out of 12 slices, 6 animals, respectively). In all three cases, the evoked epileptiform activity, was all-or-none in nature, paroxysmal and prolonged, similar to that seen following BBB opening with bile salts (Ivens et al., 2007; Seiffert et al., 2004) and typical to that observed in acute models of epilepsy (Gutnick et al., 1982).
To further confirm that the TGF-β1 induced epileptiform activity was dependent on the TGF-βR mediated pathway, we performed additional trials of the above experiments in the presence of two TGF-βR blockers (SB431542, the TGF-βRI kinase activity inhibitor and TGF-βRII antibody).

[3] = test system: albumin-induced epileptogenesis; experiment: EEG recording from awake rats during albumin-induced epileptogenesis; type: in vivo, rat
[4] = during albumin-induced epileptogenesis

albumin: bovine serum albumin, used to induce epileptogenesis
GS mRNA levels [1]: downregulation | Gjb6 mRNA levels [1]: upregulation | expression levels of the same transcripts (except GS and Gjb6) [1]: No significant differences | integral of the field potential ([2]; inducer alone, without TGF-βR blockers): 117.2±35.4 mV*ms | evoked epileptiform activity in response to stimulation of the white matter, slices showing it ([2]; slices incubated with the inducer): 8 out of 12 | EEG complexity (fractal dimension) [3, 4]: decrease | EEG signal harmony [3, 4]: increase | number of seizure like events (SLEs) ([3]; one week following treatment): sharp increase
